Laboratory results: patent US20110288114A1, “COMPOSITIONS FOR THE TREATMENT OF FIBROTIC DISEASES OR CONDITIONS” (Kinemed, Inc., priority 2008, published 2011)
“Also recorded” adds a separate entry of the source.

Experiments:
[1] = tested on: collagen synthesis in the lung (bleomycin-induced lung fibrosis); test: Bleomycin-induced lung fibrosis: fractional synthesis of collagen (2H2O labeling, GC/MS of OHP); assay type: in vivo, mice
Experimental: Bleomycin administration induces at least a three fold increase in the fractional synthesis of OHP as measured by GC/MS. Inhibition or reversal of the fibrotic response is determined by a reduction in OHP synthesis when compared with the bleomycin-vehicle control.
Animals: Female C57BU6 mice, 10 weeks of age at the start of the study were used. Food and water were available ad lib for the study duration. Study groups are as stated in table 1.
Protocol: Bleomycin (Sigma-Aldrich) was dissolved in sterile saline at a concentration of 1.05 U/ml. 30 μl of the bleomycin solution or the same volume of vehicle (sham control) was installed into the trachea of female C57BI/6 mice by the trans-oral route to yield a dose of 1.5 U/kg of bleomycin. […] Label (8% ^2H2O in drinking water) and drug administration continued for the 2 week study duration.
On the day following the last drug administration, the mice were placed under heavy anesthesia and blood was collected via cardiac puncture. The lung was perfused with isotonic saline, removed and weighed. The lung was homogenized with a MiniBeadbeater-96™ (Biospec, Bartlesville, Okla.) bead mill, and the total volume of homogenate was determined. The homogenate was subjected to acetone precipitation in order to obtain the total tissue protein for OHP assessment. The proteins were hydrolyzed by incubation in HCl, dried under vacuum and then suspended in a solution of 50% acetonitrile, 50 mM K2HPO4 and pentafluorobenzyl bromide before incubation. Derivatives were extracted into ethyl acetate, and the top layer was removed and dried by vacuum centrifugation. […] The derivatized OHP was analyzed by GC/MS, performed in the negative chemical ionization mode. […] Incorporation of ^2H into OHP was calculated as the molar fraction of molecules with one excess mass unit above the natural abundance fraction (EM1). Fractional synthesis (f) of collagen was calculated as the ratio of the EM1 value in protein-bound OHP to the maximal value possible at the body ^2H2O enrichment present. […]

[2] = tested on: collagen synthesis in the liver (ANIT-induced liver fibrosis); test: ANIT-induced liver fibrosis: fractional synthesis of collagen (2H2O labeling, GC/MS of OHP); assay type: in vivo, mice; conditions: for amount of newly synthesized collagen in the liver: separate study
Excerpt: Alpha-Naphthylisothiocyanate (ANIT) is a hepatotoxicant that damages biliary cells and hepatocytes. Prolonged exposure to ANIT induces bile duct hyperplasia and biliary fibrosis, as well as liver injury. ANIT is conjugated with glutathione in hepatocytes and secreted into the bile (reviewed in Xu, 2004). However, the ANIT-glutathione complexes are unstable and rapidly dissociate in the bile causing the hepatocytes to reuptake the drug. Recycling can continue for many rounds, delaying ANIT elimination and depleting glutathione. In addition to its direct cytotoxic effects, ANIT also induces a hepatic inflammatory response that contributes to the tissue injury. Chronic administration of ANIT to rodents results in a significant increase in liver collagen and is used as an animal model of liver fibrosis (Xu et al, 2004). […] Inhibition or reversal of the fibrotic response is determined by a reduction in collagen synthesis when compared with the ANIT-vehicle control.
Subjects: Female C57BU6 mice, 10 weeks of age at the start of the study were used. The animals were housed in groups of 5, under standard laboratory conditions, with food and water available ad lib. Study groups are as stated in table 2 (po signifies oral gavage).
Mice were fed a diet adulterated with 0.05% (w/w) ANIT or a control diet for two weeks in order to induce a fibrotic response in the liver. The mice were labeled with 8% ^2H2O (Spectra Stable Isotopes, Columbia, Md.) beginning on the day that ANIT administration began.
On the day following the last drug administration, mice were placed under heavy anesthesia, and the liver was perfused and removed. Liver tissue was homogenized with a MiniBeadbeater 96™ bead mill (Biospec, Bartlesville, Okla.) followed by acetone precipitation and vacuum drying. Proteins were hydrolyzed in 6 N HCl (110° C., 16 hours), dried under vacuum and suspended in 1 mL 50% acetonitrile, 50 mM K2HPO4, pH 11. Pentafluorobenzyl bromide was added before the sealed mixture was incubated (100° C.; 1 hour) and extracted into ethyl acetate. The top layer was removed and dried by addition of solid Na2SO4 followed by vacuum centrifugation. Samples were incubated with 50 μL methyl imidazole and 100 μL MTBSTFA, (100° C. for 30 min). The derivative was extracted in water/petroleum ether and dried with Na2SO4. Selected ion monitoring was at mass-to-charge ratios of 445, 446, and 447 for the OH-proline derivatives. Mole % excess M1 enrichment (EM1) and fractional synthesis (f) are calculated.
Statistics: An analysis of variance followed by a Dunnett's test for comparison with ANIT/vehicle control was used to analyze the data (SigmaStat). Data were considered significant at p<0.05.

[3] = tested on: liver collagen content (ANIT-induced liver fibrosis); test: ANIT-induced liver fibrosis: histological collagen content (Masson's Trichrome stain); assay type: in vivo, mice; conditions: noscapine administered with ANIT, FIG. 10
Experimental: Mice were fed a diet adulterated with 0.05% (w/w) ANIT or a control diet for two weeks in order to induce a fibrotic response in the liver. The mice were labeled with 8% ^2H2O (Spectra Stable Isotopes, Columbia, Md.) beginning on the day that ANIT administration began. […] A small sample (75 to 80 mg) of the liver was excised from the lateral right lobe, immediately fixed in formalin, and sent for histological examination (Premier Laboratory LLC, Longmont Colo., USA). Briefly, paraffin embedded slides were prepared from the formalin-fixed tissue and then treated with Masson's Trichrome stain for collagen distribution. Prepared slides were scanned, photographed, and subsequently analyzed for collagen content using ImageScope software (Aperio Technologies Inc., Vista Ca). Statistics: An analysis of variance followed by a Dunnett's test for comparison with ANIT/vehicle control was used to analyze the data (SigmaStat). Data were considered significant at p<0.05.

[4] = tested on: total collagen (OHP) content of the lung (bleomycin-induced lung fibrosis); test: Bleomycin-induced lung fibrosis: total OHP content of lung by chloramine-t assay; assay type: in vivo, mice; conditions: noscapine for 2 weeks after bleomycin 1.5 U/kg
Experimental: Protocol: Bleomycin (Sigma-Aldrich) was dissolved in sterile saline at a concentration of 1.05 U/ml. 30 μl of the bleomycin solution or the same volume of vehicle (sham control) was installed into the trachea of female C57BI/6 mice by the trans-oral route to yield a dose of 1.5 U/kg of bleomycin. […] Label (8% ^2H2O in drinking water) and drug administration continued for the 2 week study duration. […] In addition to the GC/MS analysis, the absolute amount of collagen in the samples was determined by a chloramine-t assay of total OHP, a well established colorimetric method for determining OHP content. Samples of the original homogenate (400 μl) were hydrolyzed (HCl, 500 μl), dried, re-suspended in 1 ml of assay buffer, and incubated overnight. 150 μl of the suspension was pipetted into wells of a 96 well plate. 75 μl of chloramine-t was added to the well and the plate was incubated at room temperature for 20 min. Dimethylaminobenzaldehyde (75 μl) was then added to each well. The plate was incubated at 60° C. for 15 min before being read on a microquant (Bio-Tek Instruments, Inc. MQX200) at 540 nm. OHP standards were prepared and analyzed with the samples. Results were analyzed using GraphPad Prism to interpolate values from the standard curve. […]

[5] = tested on: α-SMA positive lung cells (activated myofibroblasts); test: Bleomycin-induced lung fibrosis: histology of αSMA positive lung cells; assay type: in vivo, mice; conditions: relative to vehicle+bleomycin control; 2 weeks after bleomycin; FIG. 4
Experimental: Protocol: Bleomycin (Sigma-Aldrich) was dissolved in sterile saline at a concentration of 1.05 U/ml. 30 μl of the bleomycin solution or the same volume of vehicle (sham control) was installed into the trachea of female C57BI/6 mice by the trans-oral route to yield a dose of 1.5 U/kg of bleomycin. […] Label (8% ^2H2O in drinking water) and drug administration continued for the 2 week study duration. […] The differentiation of fibroblastic cells into myofibroblasts which express α-smooth muscle actin (α-SMA) is a major process the development of fibrosis. αSMA is a well recognized indicator of activated myofibroblasts. A small sample (5 to 20 mg) of the lung was excised from the center of the left lobe, immediately fixed in formalin, and sent for histological examination (Premier Laboratory LLC, Longmont Colo., USA). Briefly, paraffin embedded slides were prepared from the formalin-fixed tissue and then stained using an antibody for αSMA. Prepared slides were scanned, photographed, and subsequently analyzed for the presence of αSMA positive cells using ImageScope software (Aperio Technologies Inc., Vista Ca). Statistics: An analysis of variance followed by a Dunnett's test for comparison with drug vehicle/bleomycin control was used to analyze the data (SigmaStat). Data were considered significant at p<0.05.

[6] = tested on: OHP content of the liver (ANIT-induced liver fibrosis); test: ANIT-induced liver fibrosis: absolute amount of OHP in liver by chloramine-t assay; assay type: in vivo, mice
Experimental: Mice were fed a diet adulterated with 0.05% (w/w) ANIT or a control diet for two weeks in order to induce a fibrotic response in the liver. The mice were labeled with 8% ^2H2O (Spectra Stable Isotopes, Columbia, Md.) beginning on the day that ANIT administration began. […] In addition to the GC/MS analysis, the absolute amount of OHP in the samples was determined by a chloramine-t assay as described above for the bleomycin studies. Statistics: An analysis of variance followed by a Dunnett's test for comparison with ANIT/vehicle control was used to analyze the data (SigmaStat). Data were considered significant at p<0.05.

TGF-β signaling = conditions: low concentrations of paclitaxel; nude mouse model of scleroderma; cited from earlier work
[7] = as alternative to corticosteroid and/or immunosuppressive drugs; cited from earlier work

## COc1ccc2c(c1OC)C(=O)O[C@@H]2[C@H]1c2c(cc3c(c2OC)OCO3)CCN1C [noscapine]
[1]; noscapine 300 mg/kg po (oral gavage) for 2 weeks from the day of bleomycin, FIG. 5
  bleomycin-induced increase of collagen synthesis (fractional synthesis, percent labeled OHP, f): blocked the bleomycin-induced increase of collagen synthesis
[1]; noscapine in diet (2 g/kg food, approx. 300 mg/kg) for 2 weeks from the day of bleomycin, FIG. 6
  percent of newly synthesized collagen (% new OHP, f): tended to reduce the % new OH—P, but the effect was not statistically significant; also recorded: tended to reduce the percent of newly synthesized collagen
[1]; noscapine ip (10, 30, 100 mg/kg) for 2 weeks from the day of bleomycin 1.5 U/kg trans-oral, FIG. 1
  bleomycin-induced increase of collagen synthesis (fractional synthesis, percent labeled OHP, f): blocked the bleomycin-induced increase of collagen synthesis
[2]; noscapine at 30 and 100 mg/kg po, p<0.05 vs ANIT/vehicle, FIG. 7
  ANIT-induced elevation of new OHP (percent labeled OHP, f) in the liver: significantly reduced the ANIT-induced elevation of OHP
[2]; noscapine po (oral gavage) 10, 30, 100 mg/kg with 0.05% ANIT diet for 2 weeks, FIG. 7
  percent of newly synthesized collagen in the liver (percent labeled OHP, f): dose dependently reduced the percent of newly synthesized collagen
[2]; noscapine 300 mg/kg by oral gavage once per day with ANIT, FIG. 12
  amount of newly synthesized collagen in the liver: tended to decrease the amount of newly synthesized collagen
[2]; noscapine 300 mg/kg in the diet (2 g/kg food) with ANIT, FIG. 11
  amount of newly synthesized collagen in the liver: tended to decrease the amount of newly synthesized collagen
[3]
  histologically determined collagen content of liver: significantly decreased ANIT-induced collagen content; also recorded: significant decrease in collagen content
[4]; chloramine-t assay, FIG. 2
  total collagen (OHP) content of the lung: blocked by noscapine in a dose related manner
[4]; FIG. 3
  absolute amount of newly synthesized collagen in the lung (f times total OHP content): significantly decreased
[5]
  number of alpha smooth muscle actin (αSMA) positive cells in lung: significantly reduced the number of myofibroblasts activated by bleomycin; also recorded: significantly decreased the number of alpha smooth muscle actin (αSMA) positive cells
[6]; chloramine-t assay, noscapine po with ANIT for 2 weeks, vs ANIT plus vehicle control, FIG. 8
  total amount of OHP in the whole liver: significantly reduced the ANIT-induced elevation of OHP content
[6]; noscapine at 30 and 100 mg/kg po, p<0.05 vs ANIT/vehicle, FIG. 9
  ANIT-induced elevation of collagen synthesis, absolute (f x [OHP]) in the liver: significantly reduced the ANIT-induced elevation of collagen synthesis
[6]; noscapine po with ANIT for 2 weeks, vs ANIT plus vehicle control, FIG. 9
  amount of newly synthesized collagen in the whole liver (f x [OHP]): significantly reduced

## CC(=O)O[C@H]1C(=O)[C@@]2(C)[C@H]([C@H](OC(=O)c3ccccc3)[C@]3(O)C[C@H](OC(=O)[C@H](O)[C@@H](NC(=O)c4ccccc4)c4ccccc4)C(C)=C1C3(C)C)[C@]1(OC(C)=O)CO[C@@H]1C[C@@H]2O [Paclitaxel, paclitaxel]
TGF-β signaling
  Smad2 and Smad3 phosphorylation in SSc grafts: markedly suppressed Smad2 and Smad3 phosphorylation
  collagen deposition in SSc grafts: decreased collagen deposition

## COc1cc2c(c(OC)c1OC)-c1ccc(OC)c(=O)cc1[C@@H](NC(C)=O)CC2 [Colchicine, colchicine]
[7]
  safety and efficacy in the treatment of IPF: safer, but not effective
